Results on 1 compound are retold here after patent EP1460077B1, “Novel pyrazolopyrimidones and their use as PDE inhibitors” (The Jordanian Pharmaceutical Manufacturing Co. Ltd., priority 2003, dated 2004).

For one assay, the system named is male rats. Nature of the assay: Erection episodes and Penile Erection Index (PEI) in male rats within 2 hours (according to EP 1057829 A1). In kind it is in vivo. The note with it: 10 rats. How it is done: (§1) The purpose of the study was to compare the biological activity of the compositions of the present invention with that of sildenafil. In particular, the erection episodes and penile erection indexes of the compounds and compositions in the treatment of male rats and rabbits were determined.
(§2) Details on the determination of PEI values can be found in e.g. H.H. Ang and M.K. Sim, Effects of Eurycoma longifilia Jack on Penile Erection Indes and Homosexual Mounting in Rats, Pharmaceutical Sciences, 3 (1997), 117-19; and A. Benassi-Benelli, F. Ferrari and B. Pellegrini Quaratotti, Penile erection Induced by Apomorphine and N-n-propyl-norapomorphine in Rats, Arch. Int. Pharmacodyn 242 (1979), 241-247. The episode is a description for rat sucking their penus.
(§3) Rabbit experiments where performed according to E. Bischof and K. Schneider, "International Journal of Impotence Research", 13 (2001) 230 - 235, and rat experiments where performed according to EP 1057829 A1.
Further, the effect on penile length of rats was studied and the following results are given in table 2 for a compound disclosed in the invention and in table 3 for sildenafil. The penile length is indicative of the efficacy of the administered medicament.

In the next assay the test system is rabbits. Nature of the assay: Penile erection index for rabbits in dependency on time (according to Bischof and Schneider). Format: in vivo. The arrangement: penile erection index: scale not given here. How it is done:
as §1, §2, §3
Studying the penile erection index for rabbits in dependency on time yields the results given in table 1 for sildenafil and the compound (III).

Turning to `CCCc1nn(C)c2c(=O)[nH]c(-c3cc(S(=O)(=O)N4CCN(C)CC4)ccc3OCC)nc12` [Sildenafil, sildenafil], the No. of episodes was found to be 3 with male rats (dose 0.0781 mg/kg), 5 with male rats (dose 0.1562 mg/kg), 7 in the assay on male rats (dose 0.3125 mg/kg) and 14 with male rats (dose 0.6250 mg/kg). For the same compound, the PEI was found to be 90 in the assay with male rats (dose 0.0781 mg/kg), 150 in the assay on male rats (dose 0.1562 mg/kg), 350 in the assay on male rats (dose 0.3125 mg/kg) and 980 in the assay on male rats (dose 0.6250 mg/kg). The “efficacy (penile erection index for rabbits), comparison in words” value in the assay with rabbits (comparison of sildenafil, compound III and compositions) is recorded as “greater efficacy than compounds III”. The penile erection index in the assay with rabbits (time 0 min) was determined as 0; in the assay on rabbits (time 5 min) it was 18.318; in the assay on rabbits (time 10 min), 16.694; in the assay with rabbits (time 15 min) it was 15.22; with rabbits (time 20 min), 13.108; with rabbits (time 30 min) it was 11.218. Further, the figures for the penile erection index in the assay on rabbits (time 40 min) and with rabbits (time 50 min) were 7.364 and 2.94, respectively.
